{"source": "patent US9682976B2", "about": "“Protein kinase C inhibitors and uses thereof” (Rigel Pharmaceuticals, Inc., priority 2012, dated 2017)", "data": [{"system": "PKC mediated IL-2 production", "assay": "IL-2 ELISA, human primary T cell, anti CD3+CD28+", "assay_type": "cell-based", "conditions": "Homo sapiens, T-cell, 24 h, human primary T cells stimulated with αCD3 and αCD28, 24 hours", "procedure,_shortened": "(§1)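 IL-2 was quantified by ELISA in 24 h supernatants from primary human T cells given a 1 h compound pre-treatment at 37° C. These cells had been expanded from blood mononuclear cells on αCD3/αCD28 with IL-2, and the IL-2 was removed by washing. Stimulation used plate-bound αCD3 ([…]) plus αCD28 (5 μg/ml); the counter assay used PMA (0.5 ng/ml) with ionomycin (0.1 uM) instead.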", "units": {"EC50": "nM"}, "values": [{"compound": "Cn1nnn(-c2cc(Nc3ncc(F)c(N[C@@H]4C[C@@H]5CCCN5C(C)(C)C4)n3)c(F)cc2OC2CC(O)C2)c1=O", "note": "(stereo partly drawn) [Compound 227, 1-(5-((4-(((7R,8aS)-5,5-dimethyloctahydroindolizin-7-yl)amino)-5-fluoropyrimidin-2-yl)amino)-4-fluoro-2-(3-hydroxycyclobutoxy)phenyl)-4-methyl-1,4-dihydro-5H-tetrazol-5-one]", "EC50": "100 to 500"}, {"compound": "Cn1nnn(-c2cc(Nc3ncc(F)c(NC4CC5CCCN5C(C)(C)C4)n3)ccc2OC2COC2)c1=O", "note": "(centres unmarked) [Compound 40, 1-(5-(5-fluoro-4-(octahydro-5,5-dimethylindolizin-7-ylamino)pyrimidin-2-ylamino)-2-(oxetan-3-yloxy)phenyl)-4-methyl-1H-tetrazol-5(4H)-one]", "EC50": "< 100"}, {"compound": "Cn1nnn(-c2cc(Nc3ncc(F)c(N[C@@H]4C[C@@H]5CCCN5C(C)(C)C4)n3)c(F)cc2OCC2COCCO2)c1=O", "note": "(stereo partly drawn) [Compound 169, 1-(2-((1,4-dioxan-2-yl)methoxy)-5-((4-(((7R,8aS)-5,5-dimethyloctahydroindolizin-7-yl)amino)-5-fluoropyrimidin-2-yl)amino)-4-fluorophenyl)-4-methyl-1,4-dihydro-5H-tetrazol-5-one]", "EC50": "1000 to 10000"}, {"compound": "Cc1nnnn1-c1cc(Nc2ncc(F)c(N[C@@H]3C[C@@H]4CCCN4C(C)(C)C3)n2)ccc1F", "note": "[Compound 141, N4-((7R,8aS)-5,5-dimethyloctahydroindolizin-7-yl)-5-fluoro-N2-(4-fluoro-3-(5-methyl-1H-tetrazol-1-yl)phenyl)pyrimidine-2,4-diamine]", "EC50": "< 100"}, {"compound": "Cn1nnn(-c2cc(Nc3ncc(F)c(N[C@@H]4C[C@@H]5CCCN5C(C)(C)C4)n3)c(F)cc2OC2CCOCC2)c1=O", "note": "[Compound 114, 1-(5-((4-(((7R,8aS)-5,5-dimethyloctahydroindolizin-7-yl)amino)-5-fluoropyrimidin-2-yl)amino)-4-fluoro-2-((tetrahydro-2H-pyran-4-yl)oxy)phenyl)-4-methyl-1,4-dihydro-5H-tetrazol-5-one]", "EC50": "500 to 1000"}, {"compound": "Cc1cc(Nc2ncc(F)c(N[C@@H]3C[C@@H]4CCCN4C(C)(C)C3)n2)ccc1OCCO", "note": "[Compound 134, 2-(4-((4-(((7R,8aS)-5,5-dimethyloctahydroindolizin-7-yl)amino)-5-fluoropyrimidin-2-yl)amino)-2-(methyl)phenoxy)ethan-1-ol]", "EC50": "100 to 500"}, {"compound": "CC1(C)CC[C@H]2C[C@@H](Nc3nc(Nc4ccc(OCCO)c(OC(F)F)c4)ncc3F)CCN21", "note": "[Compound 303, 2-(2-(Difluoromethoxy)-4-((4-(((7S,8aS)-3,3-dimethyloctahydroindolizin-7-yl)amino)-5-fluoropyrimidin-2-yl)amino)phenoxy)ethan-1-ol]", "EC50": "100 to 500"}, {"compound": "Cn1nnn(-c2cc(Nc3ncc(F)c(N[C@@H]4C[C@@H]5CCCN5C(C)(C)C4)n3)c(F)cc2OC2COC2)c1=O", "note": "[Compound 88, 1-(5-(4-((7R,8aS)-octahydro-5,5-dimethylindolizin-7-ylamino)-5-fluoropyrimidin-2-ylamino)-4-fluoro-2-(oxetan-3-yloxy)phenyl)-4-methyl-1H-tetrazol-5(4H)-one]", "EC50": "100 to 500"}, {"compound": "Cn1nnn(-c2cc(Nc3ncc(F)c(N[C@@H]4C[C@@H]5CCCN5C(C)(C)C4)n3)c(F)cc2OCC2(C)COC2)c1=O", "note": "[Compound 159, 1-(5-((4-(((7R,8aS)-5,5-dimethyloctahydroindolizin-7-yl)amino)-5-fluoropyrimidin-2-yl)amino)-4-fluoro-2-((3-methyloxetan-3-yl)methoxy)phenyl)-4-methyl-1,4-dihydro-5H-tetrazol-5-one]", "EC50": "100 to 500"}, {"compound": "CC1(C)Oc2ccc(Nc3ncc(F)c(N[C@@H]4C[C@@H]5CCCN5C(C)(C)C4)n3)cc2O1", "note": "[Compound 157, N2-(2,2-dimethylbenzo[d][1,3]dioxol-5-yl)-N4-((7R,8aS)-5,5-dimethyloctahydroindolizin-7-yl)-5-fluoropyrimidine-2,4-diamine]", "EC50": "1000 to 10000"}, {"compound": "CC1(C)C[C@H](Nc2nc(Nc3ccc(F)c(-n4nnnc4C4CC4)c3)ncc2F)C[C@@H]2CCCN21", "note": "[Compound 143, N2-(3-(5-cyclopropyl-1H-tetrazol-1-yl)-4-fluorophenyl)-N4-((7R,8aS)-5,5-dimethyloctahydroindolizin-7-yl)-5-fluoropyrimidine-2,4-diamine]", "EC50": "< 100"}, {"compound": "Cn1nnn(-c2cc(Nc3ncc(Cl)c(N[C@@H]4C[C@@H]5CCCN5C(C)(C)C4)n3)c(F)cc2C2CC2)c1=O", "note": "[Compound 148, 1-(5-((5-chloro-4-(((7R,8aS)-5,5-dimethyloctahydroindolizin-7-yl)amino)pyrimidin-2-yl)amino)-2-cyclopropyl-4-fluorophenyl)-4-methyl-1,4-dihydro-5H-tetrazol-5-one]", "EC50": "< 100"}, {"compound": "Cn1nnn(-c2cc(Nc3ncc(F)c(N[C@@H]4C[C@@H]5CCCN5C(C)(C)C4)n3)ccc2N2CCN(C3COC3)CC2)c1=O", "note": "[Compound 117, 1-(5-((4-(((7R,8aS)-5,5-dimethyloctahydroindolizin-7-yl)amino)-5-fluoropyrimidin-2-yl)amino)-2-(4-(oxetan-3-yl)piperazin-1-yl)phenyl)-4-methyl-1,4-dihydro-5H-tetrazol-5-one]", "EC50": "1000 to 10000"}, {"compound": "CC1(C)Oc2ccc(Nc3ncc(F)c(N[C@@H]4C[C@@H]5CCCN5C(C)(C)C4)n3)cc2-n2c1nn(C(CO)CCl)c2=O", "note": "(stereo partly drawn) [Compound 250, 5-fluoro-N2-(1H-2,4-dihydron-4,4-dimethyl-2-(3-chloropropanol-2-yl)[1,2,4]triazolo[3,4-c][1,4]benzoxazin-1-one-8-yl)-N4-((7R,8aS)-octahydro-5,5-dimethylindolizin-7-yl)pyrimidine-2,4-diamine]", "EC50": "1000 to 10000"}, {"compound": "COc1ccc(Nc2ncc(F)c(N[C@@H]3C[C@@H]4CCCN4C(C)(C)C3)n2)cc1-n1nn[nH]c1=O", "note": "[Compound 277, 1-(5-(4-((7R,8aS)-octahydro-5,5-dimethylindolizin-7-ylamino)-5-fluoropyrimidin-2-ylamino)-2-methoxyphenyl)-1H-tetrazol-5(4H)-one]", "EC50": "> 10000"}, {"compound": "COCCOc1ccc(Nc2ncc(F)c(N[C@@H]3C[C@@H]4CCCN4C(C)(C)C3)n2)cc1C#N", "note": "[Compound 172, 5-((4-(((7R,8aS)-5,5-dimethyloctahydroindolizin-7-yl)amino)-5-fluoropyrimidin-2-yl)amino)-2-(2-methoxyethoxy)benzonitrile]", "EC50": "100 to 500"}, {"compound": "CC1(C)C[C@H](Nc2nc(Nc3cccc(-n4nnn(CCO)c4=O)c3)ncc2F)C[C@@H]2CCCN21", "note": "[Compound 267, 1-(3-(4-((7R,8aS)-octahydro-5,5-dimethylindolizin-7-ylamino)-5-fluoropyrimidin-2-ylamino)phenyl)-4-(2-hydroxyethyl)-1H-tetrazol-5(4H)-one]", "EC50": "100 to 500"}, {"compound": "Cn1nnn(-c2cc(Nc3ncc(F)c(N[C@H]4C[C@@H]5CC(F)(F)CN5C(C)(C)C4)n3)c(F)cc2C2CC2)c1=O", "note": "[Compound 42, 1-(5-(4-((7S,8aR)-2,2-difluoro-octahydro-5,5-dimethylindolizin-7-ylamino)-5-fluoropyrimidin-2-ylamino)-2-cyclopropyl-4-fluorophenyl)-4-methyl-1H-tetrazol-5(4H)-one]", "EC50": "1000 to 10000"}, {"compound": "CC1(C)C[C@H](Nc2nc(Nc3ccc(Cl)c(-n4nnnc4C4CC4)c3)ncc2Cl)C[C@@H]2CCCN21", "note": "[Compound 182, 5-chloro-N2-(4-chloro-3-(5-cyclopropyl-1H-tetrazol-1-yl)phenyl)-N4-((7R,8aS)-5,5-dimethyloctahydroindolizin-7-yl)pyrimidine-2,4-diamine]", "EC50": "< 100"}, {"compound": "CC1(C)C[C@H](Nc2nc(Nc3cc(-n4cnnn4)c(C4CC4)cc3F)ncc2Cl)C[C@@H]2CCCN21", "note": "[Compound 146, 5-chloro-N2-(4-cyclopropyl-2-fluoro-5-(1H-tetrazol-1-yl)phenyl)-N4-((7R,8aS)-5,5-dimethyloctahydroindolizin-7-yl)pyrimidine-2,4-diamine]", "EC50": "< 100"}, {"compound": "CC1(C)C[C@H](Nc2nc(Nc3cc(-n4nnnc4C4CC4)c(OC4COC4)cc3F)ncc2F)C[C@@H]2CCCN21", "note": "[Compound 255, N2-(5-(5-cyclopropyl-1H-tetrazol-1-yl)-2-fluoro-4-(oxetan-3-yloxy)phenyl)-5-fluoro-N4-((7R,8aS)-octahydro-5,5-dimethylindolizin-7-yl)pyrimidine-2,4-diamine]", "EC50": "< 100"}, {"compound": "Cn1nnn(-c2cc(Nc3ncc(F)c(N[C@@H]4C[C@@H]5CCCN5C(C)(C)C4)n3)c(F)cc2OCC(O)C(F)(F)F)c1=O", "note": "(stereo partly drawn) [Compound 230, 1-(5-((4-(((7R,8aS)-5,5-dimethyloctahydroindolizin-7-yl)amino)-5-fluoropyrimidin-2-yl)amino)-4-fluoro-2-(3,3,3-trifluoro-2-hydroxypropoxy)phenyl)-4-methyl-1,4-dihydro-5H-tetrazol-5-one]", "EC50": "100 to 500"}]}, {"system": "PKC mediated IL-2 production", "assay": "IL-2 ELISA, human primary T cell, anti CD3+CD28+", "assay_type": "cell-based", "conditions": "human primary T cells stimulated with αCD3 and αCD28, 24 hours", "procedure,_shortened": "as §1", "units": {"EC50": "nM"}, "values": [{"compound": "Cn1nnn(-c2cc(Nc3ncc(F)c(N[C@@H]4CCN5[C@@H](CCC5(C)C)C4)n3)c(F)cc2C2CC2)c1=O", "note": "(single isomer, unassigned) [Compound 36]", "EC50": "1000 to 10000"}, {"compound": "CC1(C)CC(Nc2nc(Nc3cc(-n4cnnn4)c(C4CC4)cc3F)ncc2F)CC2CCCN21", "note": "(single isomer, unassigned) [Compound 55, N^2-(4-cyclopropyl-2-fluoro-5-(1H-tetrazol-1-yl)phenyl)-5-fluoro-N^4-(octahydro-5,5-dimethylindolizin-7-yl)pyrimidine-2,4-diamine]", "EC50": "100 to 500"}, {"compound": "CC1(C)CC(Nc2nc(Nc3ccc(O[C@@H]4CCOC4)c(C#N)c3)ncc2F)CC2CCCN21", "note": "(single isomer, unassigned) [Compound 58]", "EC50": "1000 to 10000"}, {"compound": "Cn1nnn(-c2cc(Nc3ncc(F)c(N[C@@H]4C[C@@H]5CCCN5C(C)(C)C4)n3)c(F)cc2OCCN)c1=O", "note": "[Compound 231, 1-(2-(2-aminoethoxy)-5-((4-(((7R,8aS)-5,5-dimethyloctahydroindolizin-7-yl)amino)-5-fluoropyrimidin-2-yl)amino)-4-fluorophenyl)-4-methyl-1,4-dihydro-5H-tetrazol-5-one]", "EC50": "500 to 1000"}]}]}
